# According to PubChem BioAssay AID258 (DTP/NCI, 2004):
# Several values for one entry are separate records, joined by “and”; a condition that tells them apart may be missing. Equal entries are not always repeated. Toxic doses and inconclusive results are not listed.
# System: CD2F1 mice, L1210 leukemia sc, survival T/C
# Assay: NCI In Vivo Anticancer Drug Screen. Data for tumor model L1210 Leukemia (subcutaneous) in CD2F1 (CDF1) mice
# Details: endpoint: median survival time, higher = longer survival
# Method in brief: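 Read-out: survival or tumor size. Value = treated (T) / vehicle control (C). Transplantable tumor in mice.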
compound,measurement,setting,value
N[C@@H](Cc1ccc(N(CCCl)CCCl)cc1)C(=O)O,T/C,"dose: 0.31 mg/kg/injection, schedule: Q01DX009 (ip), vehicle: saline",96 % of control
same,T/C,"dose: 0.31 mg/kg/injection, schedule: Q01DX009 (sc), vehicle: saline",100 % of control
same,T/C,"dose: 0.62 mg/kg/injection, schedule: Q01DX009 (ip), vehicle: saline",104 % of control
same,T/C,"dose: 0.62 mg/kg/injection, schedule: Q01DX009 (sc), vehicle: saline",104 % of control
same,T/C,"dose: 0.63 mg/kg/injection, schedule: Q01DX009 (ip), vehicle: saline",99 % of control
same,T/C,"dose: 1.0 mg/kg/injection, schedule: Q01DX009 (ip), vehicle: suspension in saline",121 % of control
same,T/C,"dose: 1.0 mg/kg/injection, schedule: Q01DX009 (sc), vehicle: saline with Tween-80",105 % of control and 108 % of control
same,T/C,"dose: 1.25 mg/kg/injection, schedule: Q01DX009 (ip), vehicle: saline",112 % of control and 113 % of control and 121 % of control
same,T/C,"dose: 1.25 mg/kg/injection, schedule: Q01DX009 (sc), vehicle: saline",115 % of control and 121 % of control
same,T/C,"dose: 2.0 mg/kg/injection, schedule: Q01DX009 (sc), vehicle: saline with Tween-80",110 % of control and 124 % of control
same,T/C,"dose: 2.5 mg/kg/injection, schedule: Q01DX009 (ip), vehicle: saline",124 % of control
same,T/C,"dose: 3.0 mg/kg/injection, schedule: Q01DX009 (ip), vehicle: saline",153 % of control
same,T/C,"dose: 3.5 mg/kg/injection, schedule: Q01DX009 (ip), vehicle: saline",168 % of control
same,T/C,"dose: 4.0 mg/kg/injection, schedule: Q01DX009 (ip), vehicle: saline",173 % of control
same,T/C,"dose: 4.0 mg/kg/injection, schedule: Q01DX009 (ip), vehicle: suspension in saline",169 % of control
same,T/C,"dose: 4.0 mg/kg/injection, schedule: Q01DX009 (sc), vehicle: saline with Tween-80",163 % of control
same,T/C,"dose: 4.5 mg/kg/injection, schedule: Q01DX009 (ip), vehicle: saline",169 % of control
same,T/C,"dose: 5.0 mg/kg/injection, schedule: Q01DX009 (sc), vehicle: saline",153 % of control and 156 % of control
same,T/C,"dose: 5.3 mg/kg/injection, schedule: Q01DX009 (sc), vehicle: saline",161 % of control
same,T/C,"dose: 7.5 mg/kg/injection, schedule: Q01DX009 (sc), vehicle: saline",104 % of control
same,T/C,"dose: 8.0 mg/kg/injection, schedule: Q01DX009 (ip), vehicle: suspension in saline",88 % of control
same,T/C,"dose: 8.0 mg/kg/injection, schedule: Q01DX009 (sc), vehicle: saline with Tween-80",168 % of control
same,T/C,"dose: 10.0 mg/kg/injection, schedule: Q01DX009 (sc), vehicle: saline",98 % of control
same,T/C,"dose: 16.0 mg/kg/injection, schedule: Q01DX009 (sc), vehicle: saline with Tween-80",118 % of control and 87 % of control
same,T/C,"dose: 18.0 mg/kg/injection, schedule: Q01DX009 (sc), vehicle: saline",110 % of control
same,T/C,"dose: 32.0 mg/kg/injection, schedule: Q01DX009 (sc), vehicle: saline with Tween-80",107 % of control
same,T/C,"dose: 64.0 mg/kg/injection, schedule: Q01DX009 (sc), vehicle: saline with Tween-80",108 % of control
CCOC1=C(N2CC2)C(=O)C(OCC)=C(N2CC2)C1=O,T/C,"dose: 3.0 mg/kg/injection, schedule: Q01DX Z (sc), vehicle: carboxymethylcellulose (CMC)",113 % of control
same,T/C,"dose: 5.0 mg/kg/injection, schedule: Q01DX Z (sc), vehicle: carboxymethylcellulose (CMC)",118 % of control
same,T/C,"dose: 8.4 mg/kg/injection, schedule: Q01DX Z (sc), vehicle: carboxymethylcellulose (CMC)",113 % of control
same,T/C,"dose: 14.0 mg/kg/injection, schedule: Q01DX Z (sc), vehicle: carboxymethylcellulose (CMC)",109 % of control
same,T/C,"dose: 23.0 mg/kg/injection, schedule: Q01DX Z (sc), vehicle: carboxymethylcellulose (CMC)",100 % of control
S=c1nc[nH]c2nc[nH]c12,T/C,"dose: 5.0 mg/kg/injection, schedule: Q01DX009 (sc), vehicle: saline with Tween-80",113 % of control
same,T/C,"dose: 5.0 mg/kg/injection, schedule: Q## X Z (sc), vehicle: other",111 % of control
same,T/C,"dose: 8.4 mg/kg/injection, schedule: Q01DX Z (sc), vehicle: methylcellulose (MC)",100 % of control
same,T/C,"dose: 14.0 mg/kg/injection, schedule: Q01DX Z (ip), vehicle: other",100 % of control
same,T/C,"dose: 14.0 mg/kg/injection, schedule: Q01DX Z (sc), vehicle: methylcellulose (MC)",100 % of control
same,T/C,"dose: 14.0 mg/kg/injection, schedule: Q01DX Z (sc), vehicle: other",100 % of control
same,T/C,"dose: 14.0 mg/kg/injection, schedule: Q## X Z (sc), vehicle: other",172 % of control
same,T/C,"dose: 14.0 mg/kg/injection, schedule: Q#A X Z (sc), vehicle: other",111 % of control
same,T/C,"dose: 20.0 mg/kg/injection, schedule: Q01DX009 (sc), vehicle: saline with Tween-80",167 % of control
same,T/C,"dose: 23.0 mg/kg/injection, schedule: Q01DX Z (ip), vehicle: other",100 % of control
same,T/C,"dose: 23.0 mg/kg/injection, schedule: Q01DX Z (oral), vehicle: other",110 % of control
same,T/C,"dose: 23.0 mg/kg/injection, schedule: Q01DX Z (sc), vehicle: methylcellulose (MC)",109 % of control and 110 % of control
same,T/C,"dose: 23.0 mg/kg/injection, schedule: Q02DX Z (sc), vehicle: other",100 % of control
same,T/C,"dose: 23.0 mg/kg/injection, schedule: Q## X Z (sc), vehicle: other",161 % of control
same,T/C,"dose: 23.0 mg/kg/injection, schedule: Q#A X Z (sc), vehicle: other",105 % of control
same,T/C,"dose: 25.0 mg/kg/injection, schedule: Q01DX Z (sc), vehicle: other",112 % of control
same,T/C,"dose: 39.0 mg/kg/injection, schedule: Q01DX001 (sc), vehicle: other",100 % of control
same,T/C,"dose: 39.0 mg/kg/injection, schedule: Q01DX Z (ip), vehicle: other",100 % of control
same,T/C,"dose: 39.0 mg/kg/injection, schedule: Q01DX Z (oral), vehicle: other",110 % of control
same,T/C,"dose: 39.0 mg/kg/injection, schedule: Q02DX Z (sc), vehicle: other",111 % of control
same,T/C,"dose: 39.0 mg/kg/injection, schedule: Q07DX Z (sc), vehicle: other",111 % of control
same,T/C,"dose: 39.0 mg/kg/injection, schedule: Q#A X Z (sc), vehicle: other",166 % of control
same,T/C,"dose: 40.0 mg/kg/injection, schedule: Q01DX009 (sc), vehicle: saline with Tween-80",151 % of control
same,T/C,"dose: 46.8 mg/kg/injection, schedule: Q01DX Z (sc), vehicle: other",122 % of control
same,T/C,"dose: 50.0 mg/kg/injection, schedule: Q01DX Z (sc), vehicle: other",175 % of control
same,T/C,"dose: 65.0 mg/kg/injection, schedule: Q01DX001 (sc), vehicle: other",105 % of control
same,T/C,"dose: 65.0 mg/kg/injection, schedule: Q01DX Z (sc), vehicle: methylcellulose (MC)",165 % of control
same,T/C,"dose: 65.0 mg/kg/injection, schedule: Q02DX Z (sc), vehicle: other",111 % of control
same,T/C,"dose: 65.0 mg/kg/injection, schedule: Q07DX Z (sc), vehicle: other",111 % of control
same,T/C,"dose: 65.0 mg/kg/injection, schedule: Q## X Z (sc), vehicle: other",111 % of control
same,T/C,"dose: 65.0 mg/kg/injection, schedule: Q#A X Z (sc), vehicle: other",177 % of control
same,T/C,"dose: 78.0 mg/kg/injection, schedule: Q01DX Z (sc), vehicle: other",194 % of control
same,T/C,"dose: 80.0 mg/kg/injection, schedule: Q01DX009 (sc), vehicle: saline with Tween-80",110 % of control
same,T/C,"dose: 100.0 mg/kg/injection, schedule: Q01DX Z (sc), vehicle: other",162 % of control
same,T/C,"dose: 108.0 mg/kg/injection, schedule: Q01DX001 (sc), vehicle: other",122 % of control
same,T/C,"dose: 108.0 mg/kg/injection, schedule: Q01DX Z (ip), vehicle: other",175 % of control
same,T/C,"dose: 108.0 mg/kg/injection, schedule: Q01DX Z (oral), vehicle: other",170 % of control
same,T/C,"dose: 108.0 mg/kg/injection, schedule: Q02DX Z (sc), vehicle: other",200 % of control
same,T/C,"dose: 108.0 mg/kg/injection, schedule: Q07DX Z (sc), vehicle: other",122 % of control
same,T/C,"dose: 108.0 mg/kg/injection, schedule: Q## X Z (sc), vehicle: other",111 % of control
same,T/C,"dose: 130.0 mg/kg/injection, schedule: Q01DX Z (sc), vehicle: other",177 % of control
same,T/C,"dose: 160.0 mg/kg/injection, schedule: Q01DX009 (sc), vehicle: saline with Tween-80",89 % of control
same,T/C,"dose: 180.0 mg/kg/injection, schedule: Q01DX001 (sc), vehicle: other",122 % of control
same,T/C,"dose: 180.0 mg/kg/injection, schedule: Q01DX Z (sc), vehicle: methylcellulose (MC)",118 % of control
same,T/C,"dose: 180.0 mg/kg/injection, schedule: Q02DX Z (sc), vehicle: other",172 % of control
same,T/C,"dose: 180.0 mg/kg/injection, schedule: Q07DX Z (sc), vehicle: other",122 % of control
same,T/C,"dose: 180.0 mg/kg/injection, schedule: Q## X Z (sc), vehicle: other",122 % of control
same,T/C,"dose: 216.0 mg/kg/injection, schedule: Q01DX Z (sc), vehicle: other",166 % of control
same,T/C,"dose: 300.0 mg/kg/injection, schedule: Q01DX001 (sc), vehicle: other",111 % of control
same,T/C,"dose: 300.0 mg/kg/injection, schedule: Q01DX Z (sc), vehicle: other",150 % of control
